Target: human adenosine A2b receptor (Homo sapiens (Human), UniProt P29275)
Assay: Cellular in vitro reporter gene test for A2b receptor activity (CHO-K1, CRE-luciferase, NECA stimulation)
Assay type: cell-based
Details: recombinant CHO-K1 cell line, CRE-luciferase reporter, antagonism of EC50 concentration of NECA; in some cases means of several determinations, rounded to two significant figures; read-out: A2b receptor IC50
Summary of the method: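 CHO-K1 cells with CRE-driven luciferase; antagonists co-incubated with NECA at its EC50, determined in a pre-experiment on each test day. Luciferase read by luminescence 3 h after NECA addition.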

Chain of human adenosine A2b receptor (P29275 whole entry): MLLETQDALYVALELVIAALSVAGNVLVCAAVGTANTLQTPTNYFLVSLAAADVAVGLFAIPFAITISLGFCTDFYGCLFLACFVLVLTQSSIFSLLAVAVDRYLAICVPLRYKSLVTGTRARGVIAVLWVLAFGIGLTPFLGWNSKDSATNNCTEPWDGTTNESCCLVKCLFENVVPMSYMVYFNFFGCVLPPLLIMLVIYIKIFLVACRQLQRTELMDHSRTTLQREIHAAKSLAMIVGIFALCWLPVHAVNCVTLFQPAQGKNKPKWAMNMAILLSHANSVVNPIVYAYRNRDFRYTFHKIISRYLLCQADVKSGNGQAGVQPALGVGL

| SMILES | IC50 [µM] |
| --- | --- |
| Cc1c(CN2CCNC2=O)sc2c1c(=O)n(CC(F)F)c(=O)n2C [Example 223, 3-(2,2-Difluoroethyl)-1,5-dimethyl-6-[(2-oxoimidazolidin-1-yl)methyl]thieno[2,3-d]pyrimidine-2,4(1H,3H)-dione] | 0.014 |
| COCCn1c(=O)n(C(C)C)c(=O)c2c(C)c(Cn3[nH]ccc3=O)sc21 [Example 133, 3-Isopropyl-1-(2-methoxyethyl)-5-methyl-6-[(5-oxo-2,5-dihydro-1H-pyrazol-1-yl)methyl]thieno[2,3-d]pyrimidine-2,4(1H,3H)-dione] | 0.026 |
| CCn1c(=O)c2c(C)c(CN3CCNC3=O)sc2n(CCSC(F)(F)F)c1=O [Example 58, 3-Ethyl-5-methyl-6-[(2-oxoimidazolidin-1-yl)methyl]-1-{2-[(trifluoromethyl)sulphanyl]ethyl}thieno[2,3-d]pyrimidine-2,4(1H,3H)-dione] | 0.0026 |
| Cc1c(CN2CCNC2=O)sc2c1c(=O)n(CC(C)C)c(=O)n2CCC(F)(F)F [Example 87, 3-Isobutyl-5-methyl-6-[(2-oxoimidazolidin-1-yl)methyl]-1-(3,3,3-trifluoropropyl)thieno[2,3-d]pyrimidine-2,4(1H,3H)-dione] | 0.0023 |
| Cc1c(CN2CCNC2=S)sc2c1c(=O)n(CC(C)C)c(=O)n2CC1CCO1 (racemic) [Example 146, 3-Isobutyl-5-methyl-1-(oxetan-2-ylmethyl)-6-[(2-thioxoimidazolidin-1-yl)methyl]thieno[2,3-d]pyrimidine-2,4(1H,3H)-dione] | 0.011 |
| Cc1c(Cn2nc[nH]c2=O)sc2c1c(=O)n(CC(F)(F)F)c(=O)n2CCC(F)(F)F [Example 432, 5-Methyl-6-[(5-oxo-4,5-dihydro-1H-1,2,4-triazol-1-yl)methyl]-3-(2,2,2-trifluoroethyl)-1-(3,3,3-trifluoropropyl)thieno[2,3-d]pyrimidine-2,4(1H,3H)-dione] | 0.092 |
| Cc1c(CN2CCNC(=O)C2=O)sc2c1c(=O)n(CC(F)(F)F)c(=O)n2CC1CCCO1 (single isomer, unassigned) [Example 489, 6-[(2,3-Dioxopiperazin-1-yl)methyl]-5-methyl-1-(tetrahydrofuran-2-ylmethyl)-3-(2,2,2-trifluoroethyl)thieno[2,3-d]pyrimidine-2,4(1H,3H)-dione] | 0.027 |

Continued by falling IC50, values first:

| IC50 [µM] | SMILES |
| --- | --- |
| 0.12 | COCCn1c(=O)n(CC(C)(C)C)c(=O)c2c(C)c(Cn3nc[nH]c3=O)sc21 [Example 428, 3-(2,2-Dimethylpropyl)-1-(2-methoxyethyl)-5-methyl-6-[(5-oxo-4,5-dihydro-1H-1,2,4-triazol-1-yl)methyl]thieno[2,3-d]pyrimidine-2,4(1H,3H)-dione] |
| 0.023 | COC(C)Cn1c(=O)c2c(C)c(Cn3nc[nH]c3=O)sc2n(CCC(F)(F)F)c1=O (racemic) [Example 440, 3-(2-Methoxypropyl)-5-methyl-6-[(5-oxo-4,5-dihydro-1H-1,2,4-triazol-1-yl)methyl]-1-(3,3,3-trifluoropropyl)thieno[2,3-d]pyrimidine-2,4(1H,3H)-dione] |
| 0.022 | Cc1c(CN2CCNC2=O)sc2c1c(=O)n(C(C)C)c(=O)n2C [Example 312, 3-Isopropyl-1,5-dimethyl-6-[(2-oxoimidazolidin-1-yl)methyl]thieno[2,3-d]pyrimidine-2,4(1H,3H)-dione] |
| 0.013 | Cc1c(CN2CCNC2=S)sc2c1c(=O)n(CC(F)F)c(=O)n2C [Example 166, 3-(2,2-Difluoroethyl)-1,5-dimethyl-6-[(2-thioxoimidazolidin-1-yl)methyl]thieno[2,3-d]pyrimidine-2,4(1H,3H)-dione] |
| 0.0047 | CCn1c(=O)c2c(C)c(Cn3[nH]ccc3=O)sc2n(CCOC)c1=O [Example 128, 3-Ethyl-1-(2-methoxyethyl)-5-methyl-6-[(5-oxo-2,5-dihydro-1H-pyrazol-1-yl)methyl]thieno[2,3-d]pyrimidine-2,4(1H,3H)-dione] |

— patent publication US10428083B2, “Heterocyclylmethyl-thienouracile as antagonists of the adenosine-A2B-receptor” (BAYER PHARMA AKTIENGESELLSCHAFT, priority 2015, dated 2019)
